Assay results reported in PMC6100082, “Pyridine-Ureas as Potential Anticancer Agents: Synthesis and In Vitro Biological Evaluation” (Molecules : A Journal of Synthetic Chemistry and Natural …, 2018).

What was measured:
Type in all cases: cell-based, human
[1] = system: HL-60(TB); assay: NCI one-dose SRB assay (Leukemia)
Protocol: (§1) The structures of all the newly prepared pyridine-ureas 8a–n were submitted to the National Cancer Institute (NCI) Developmental Therapeutic Program. Eight compounds 8b, 8d, 8e, 8i, 8j and 8l–n were selected to be examined for their in vitro growth inhibitory activity. The anticancer assays were carried out according to the protocol of the Drug Evaluation Branch, NCI, Bethesda. The selected pyridine-ureas were tested at one dose primary anticancer assay against a panel of approximately 58 cancer lines (concentration 10^−5 M). The tested human cancer cell lines emerged from nine different cancer subtypes: leukemia, colon, melanoma, ovarian, lung, CNS, renal, breast and prostate cancers. The sulforhodamine B (SRB) protein assay was adopted to estimate the cell viability and growth. The results were reported as mean-graph of the percentage growth of the treated cells, and presented as percentage growth inhibition (GI%) caused by the test compounds (Table 2).
(§2) The anticancer assays were performed in accordance with the protocol of the Drug Evaluation Branch, NCI, Bethesda. A 48 h drug exposure protocol was used and sulforhodamine B (SRB) protein assay was applied to estimate the cell viability and growth, as reported earlier.

[2] = system: MOLT-4; assay: NCI one-dose SRB assay (Leukemia)
Protocol: as §1, §2

[3] = system: RPMI-8226; assay: NCI one-dose SRB assay (Leukemia)
Protocol: as §1, §2

[4] = system: K-562; assay: NCI one-dose SRB assay (Leukemia)
Protocol: as §1, §2

[5] = system: SR; assay: NCI one-dose SRB assay (Leukemia)
Protocol: as §1, §2

[6] = system: CCRF-CEM; assay: NCI one-dose SRB assay (Leukemia)
Protocol: as §1, §2

[7] = system: OVCAR-8; assay: NCI one-dose SRB assay (Ovarian Cancer)
Protocol: as §1, §2

[8] = system: OVCAR-5; assay: NCI one-dose SRB assay (Ovarian Cancer)
Protocol: as §1, §2

[9] = system: OVCAR-4; assay: NCI one-dose SRB assay (Ovarian Cancer)
Protocol: as §1, §2

[10] = system: NCI/ADR-RES; assay: NCI one-dose SRB assay (Ovarian Cancer)
Protocol: as §1, §2

[11] = system: IGROV1; assay: NCI one-dose SRB assay (Ovarian Cancer)
Protocol: as §1, §2

[12] = system: OVCAR-3; assay: NCI one-dose SRB assay (Ovarian Cancer)
Protocol: as §1, §2

[13] = system: SK-OV-3; assay: NCI one-dose SRB assay (Ovarian Cancer)
Protocol: as §1, §2

[14] = system: SF-295; assay: NCI one-dose SRB assay (CNS Cancer)
Protocol: as §1, §2

[15] = system: SF-268; assay: NCI one-dose SRB assay (CNS Cancer)
Protocol: as §1, §2

[16] = system: SNB-19; assay: NCI one-dose SRB assay (CNS Cancer)
Protocol: as §1, §2

[17] = system: SF-539; assay: NCI one-dose SRB assay (CNS Cancer)
Protocol: as §1, §2

[18] = system: SNB-75; assay: NCI one-dose SRB assay (CNS Cancer)
Protocol: as §1, §2

[19] = system: U251; assay: NCI one-dose SRB assay (CNS Cancer)
Protocol: as §1, §2

[20] = system: NCI 58 cell line panel; assay: NCI one-dose SRB assay, whole panel / subpanel summary
Protocol: as §1, §2

[21] = system: RXF 393; assay: NCI one-dose SRB assay (Renal Cancer)
Protocol: as §1, §2

[22] = system: A498; assay: NCI one-dose SRB assay (Renal Cancer)
Protocol: as §1, §2

[23] = system: 786-0; assay: NCI one-dose SRB assay (Renal Cancer)
Protocol: as §1, §2

[24] = system: SN12C; assay: NCI one-dose SRB assay (Renal Cancer)
Protocol: as §1, §2

[25] = system: TK-10; assay: NCI one-dose SRB assay (Renal Cancer)
Protocol: as §1, §2

[26] = system: UO-31; assay: NCI one-dose SRB assay (Renal Cancer)
Protocol: as §1, §2

[27] = Homo sapiens, 10 μM, read-out: Percentage growth inhibition (GI%)

COc1ccc(-c2ccc(NC(=O)Nc3ccc(Cl)cc3)c(C)n2)cc1 [Compound 8d, 1-(4-Chlorophenyl)-3-(6-(4-methoxyphenyl)-2-methylpyridin-3-yl) Urea]
Growth Percent ([1]; 1.00E-5 Molar): 79.74% | inhibition at 10 µM [1, 27]: 21% | inhibition at 10 µM ([2]; Homo sapiens, MOLT-4, 10 μM, read-out: Percentage growth inhibition (GI%)): 28% | Growth Percent ([2]; MOLT-4, 1.00E-5 Molar): 72.42% | inhibition at 10 µM ([3]; Homo sapiens, RPMI-8226, 10 μM, read-out: Percentage growth inhibition (GI%)): 10% | Growth Percent ([3]; RPMI-8226, 1.00E-5 Molar): 90.15% | inhibition at 10 µM ([4]; Homo sapiens, K562, K-562, 10 μM, read-out: Percentage growth inhibition (GI%)): 16% | Growth Percent ([4]; K-562, 1.00E-5 Molar): 84.35% | Growth Percent ([5]; 1.00E-5 Molar): 43.88% | inhibition at 10 µM [5, 27]: 57% | Growth Percent ([6]; 1.00E-5 Molar): 81.43% | inhibition at 10 µM [6, 27]: 19% | inhibition at 10 µM ([7]; Homo sapiens, OVCAR-8, 10 μM, read-out: Percentage growth inhibition (GI%)): < 10% | Growth Percent ([7]; OVCAR-8, 1.00E-5 Molar): 93.26% | inhibition at 10 µM ([8]; Homo sapiens, OVCAR-5, 10 μM, read-out: Percentage growth inhibition (GI%)): < 10% | Growth Percent ([8]; OVCAR-5, 1.00E-5 Molar): 93.01% | inhibition at 10 µM ([9]; Homo sapiens, OVCAR-4, 10 μM, read-out: Percentage growth inhibition (GI%)): 26% | Growth Percent ([9]; OVCAR-4, 1.00E-5 Molar): 74.67% | Growth Percent ([10]; 1.00E-5 Molar): 92.03% | inhibition at 10 µM [10, 27]: < 10% | inhibition at 10 µM ([11]; Homo sapiens, IGROV-1, IGROV1, 10 μM, read-out: Percentage growth inhibition (GI%)): 17% | Growth Percent ([11]; IGROV1, 1.00E-5 Molar): 83.85% | inhibition at 10 µM ([12]; Homo sapiens, OVCAR-3, 10 μM, read-out: Percentage growth inhibition (GI%)): < 10% | Growth Percent ([12]; OVCAR-3, 1.00E-5 Molar): 101.66% | inhibition at 10 µM ([13]; Homo sapiens, SK-OV-3, 10 μM, read-out: Percentage growth inhibition (GI%)): 18% | Growth Percent ([13]; SK-OV-3, 1.00E-5 Molar): 82.66% | inhibition at 10 µM ([14]; Homo sapiens, SF-295, 10 μM, read-out: Percentage growth inhibition (GI%)): < 10% | Growth Percent ([14]; SF-295, 1.00E-5 Molar): 97.10% | inhibition at 10 µM ([15]; Homo sapiens, SF-268, 10 μM, read-out: Percentage growth inhibition (GI%)): < 10% | Growth Percent ([15]; SF-268, 1.00E-5 Molar): 96.43% | inhibition at 10 µM ([16]; Homo sapiens, SNB-19, 10 μM, read-out: Percentage growth inhibition (GI%)): < 10% | Growth Percent ([16]; SNB-19, 1.00E-5 Molar): 94.20% | inhibition at 10 µM ([17]; Homo sapiens, SF-539, 10 μM, read-out: Percentage growth inhibition (GI%)): 16% | Growth Percent ([17]; SF-539, 1.00E-5 Molar): 84.16% | inhibition at 10 µM ([18]; Homo sapiens, SNB-75, 10 μM, read-out: Percentage growth inhibition (GI%)): 16% | Growth Percent ([18]; SNB-75, 1.00E-5 Molar): 84.87% | inhibition at 10 µM ([19]; Homo sapiens, U-251, U251, 10 μM, read-out: Percentage growth inhibition (GI%)): 24% | Growth Percent ([19]; U251, 1.00E-5 Molar): 76.51% | inhibition at 10 µM ([20]; Homo sapiens, 10 μM, one dose, read-out: mean inhibition (mean % growth inhibition over NCI 58 cell line panel)): 14% | Mean Growth Percent ([20]; One Dose Mean Graph, 1.00E-5 Molar): 86.24% | inhibition at 10 µM ([21]; Homo sapiens, RXF 393, 10 μM, read-out: Percentage growth inhibition (GI%)): < 10% | Growth Percent ([21]; RXF 393, 1.00E-5 Molar): 98.51% | Growth Percent ([22]; A498, 1.00E-5 Molar): 79.24% | inhibition at 10 µM ([22]; Homo sapiens, A498, 10 μM, read-out: Percentage growth inhibition (GI%)): 21% | Growth Percent ([23]; 786-0, 1.00E-5 Molar): 90.10% | inhibition at 10 µM ([23]; Homo sapiens, 786-0, 10 μM, read-out: Percentage growth inhibition (GI%)): 10% | Growth Percent ([24]; 1.00E-5 Molar): 98.33% | inhibition at 10 µM [24, 27]: < 10% | inhibition at 10 µM ([25]; Homo sapiens, TK-10, 10 μM, read-out: Percentage growth inhibition (GI%)): < 10% | Growth Percent ([25]; TK-10, 1.00E-5 Molar): 102.41% | inhibition at 10 µM ([26]; Homo sapiens, UO-31, 10 μM, read-out: Percentage growth inhibition (GI%)): 11% | Growth Percent ([26]; UO-31, 1.00E-5 Molar): 89.14%
